Target: T1, human GPR84 receptor (Homo sapiens, UniProt Q9NQS5)
T1 construct: host or cells: HEK293, transient transfection
Assay: Gαi biosensor BRET assay in HEK293 cells (antagonism of ZQ-16)
Type: cell-based
Conditions: for inhibition at 10 µM: HEK293, single concentration 10 μM (designated F); for inhibition at 25 µM: HEK293, single concentration 25 μM (designated I); for IC50: HEK293 cells, antagonism of 200 nmol/L ZQ-16; for inhibition at 2 µM: HEK293, single concentration 2 μM (designated A)
Method in brief: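 HEK293 cells transiently expressing human GPR84, Gαi2-Rluc8, GFP10-Gγ2 and Gβ1, in Tyrode's buffer pH 7.5. Compounds preincubated 5 min at 37° C, then 200 nmol/L ZQ-16 for 5 min at room temperature; coelenterazine 400A 5 μmol/L. BRET2 acceptor/donor ratio, background- and vehicle-corrected net BRET.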

T1 sequence (Q9NQS5 whole entry): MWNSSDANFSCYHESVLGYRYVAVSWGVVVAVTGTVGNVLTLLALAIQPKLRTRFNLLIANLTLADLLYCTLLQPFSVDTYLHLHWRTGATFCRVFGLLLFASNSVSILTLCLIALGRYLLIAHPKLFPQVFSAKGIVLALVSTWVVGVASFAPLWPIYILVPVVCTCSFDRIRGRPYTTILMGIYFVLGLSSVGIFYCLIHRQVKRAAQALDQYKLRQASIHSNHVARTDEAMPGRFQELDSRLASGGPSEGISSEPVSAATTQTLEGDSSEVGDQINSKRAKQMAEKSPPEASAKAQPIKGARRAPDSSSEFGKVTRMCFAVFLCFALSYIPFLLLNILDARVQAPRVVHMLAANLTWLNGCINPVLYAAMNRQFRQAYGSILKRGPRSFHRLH

Cc1cc(N2CC(C)(CO)C2)ccc1-c1cn(CC2OCC(C)(C)CO2)nn1 [Compound I-614]
inhibition at 10 µM: 50 to 75%

Cc1cc(C#CC2CC(F)(F)C2)cnc1-c1cn(CC2CCCCO2)nn1 (centres unmarked) [Compound I-648]
inhibition at 10 µM: > 75%

Cc1cc(C#CC2COC2)ccc1-c1cn(CC2CCCCO2)nn1 (centres unmarked) [Compound I-576]
inhibition at 10 µM: 50 to 75%

Cc1cc(NC(=O)c2ccccc2)ccc1-c1cn(CC2CCCCO2)nn1 (centres unmarked) [Compound I-483]
inhibition at 10 µM: ≤ 25%

Cc1cc(C#CC2CC2)ccc1-c1cn(CCOCC2COCCO2)nn1 (centres unmarked) [Compound I-92]
inhibition at 25 µM: 25 to 50%

C(#CC1CC1)c1ccc(Cc2cn(CC3CCCCO3)nn2)cc1 (centres unmarked) [Compound I-298]
inhibition at 10 µM: 25 to 50%

Cc1c(-c2ccc(C#CCO)cc2)nnn1CC1CCCCO1 (centres unmarked) [Compound I-243]
inhibition at 10 µM: 25 to 50%

CC(c1cn(CC2CCCCO2)nn1)c1cccc(C#CC2CC2)n1 (centres unmarked) [Compound I-416]
inhibition at 10 µM: 25 to 50%

Cc1cc(N2C3CCC2CN(Cc2ccccn2)C3)ccc1-c1cn(CC2CCCCO2)nn1 (centres unmarked) [Compound I-430]
inhibition at 10 µM: 25 to 50%
IC50: 300 to 1000 nM

Cc1cc(N2CCN(Cc3nccn3C)CC2)ccc1-c1cn(CC2CCCCO2)nn1 (centres unmarked) [Compound I-580]
inhibition at 10 µM: 25 to 50%

Cc1cc(N2CCN(Cc3ccccn3)CC2)ccc1-c1cn(CC2OCC(F)(F)CO2)nn1 [Compound I-615]
inhibition at 10 µM: 50 to 75%

OCc1cc(C#CC2CC2)ccc1-c1cn(CC2CCCCO2)nn1 (centres unmarked) [Compound I-216]
inhibition at 10 µM: ≤ 25%

Cc1ccc(-c2ccc(C3CN(CC4CCCCO4)C(=O)O3)c(C)c2)cn1 (centres unmarked) [Compound I-406, 5-(2-methyl-4-(6-methylpyridin-3-yl)phenyl)-3-((tetrahydro-2H-pyran-2-yl)methyl)oxazolidin-2-one]
inhibition at 10 µM: ≤ 25%

Cc1cc(C#CCNc2ccccc2)ccc1-c1cn(Cc2ccccn2)nn1 [Compound I-137]
inhibition at 10 µM: ≤ 25%

Cc1cc(N2CCN(C(C)c3ccccn3)CC2)ccc1-c1cn(CC2OCC(C)(C)CO2)nn1 (centres unmarked) [Compound I-691]
inhibition at 10 µM: > 75%
IC50: 300 to 1000 nM

Cc1ccc(-c2ccc(-c3cn(CC4CCCCO4)nn3)c(C)c2)cn1 (centres unmarked) [Compound I-36]
inhibition at 25 µM: 25 to 50%
IC50: > 3000 nM

Cc1cc(N2CC(F)C2)ccc1-c1cn(CC2CCCCO2)nn1 (centres unmarked) [Compound I-529]
inhibition at 10 µM: ≤ 25%

Clc1cc(C#CC2CC2)cnc1-c1cn(CC2OCC3(CCC3)O2)nn1 (centres unmarked) [Compound I-806]
inhibition at 2 µM: > 75%

Cc1cc(N2CC(C)C2)ccc1-c1cn(CC2CCCCO2)nn1 (centres unmarked) [Compound I-264]
inhibition at 10 µM: 50 to 75%

Cc1cc(N2CCN(Cc3ccccn3)CC2)ccc1-c1cn(CC2OCCCO2)nn1 [Compound I-532]
inhibition at 10 µM: 25 to 50%

Cc1cc(N2CC(C)(C#N)C2)ccc1-c1cn(CC2CCCCO2)nn1 (centres unmarked) [Compound I-495]
inhibition at 10 µM: 25 to 50%

Cc1cc(N2CC(C)(F)C2)ccc1-c1cn(CC2CCCCO2)nn1 (centres unmarked) [Compound I-519]
inhibition at 10 µM: 25 to 50%

CN(C)c1cc(C#CC2CC2)cnc1-c1cn(CC2CCCCO2)nn1 (centres unmarked) [Compound I-518]
inhibition at 10 µM: > 75%
IC50: 1000 to 3000 nM

Cc1cc(N2CCN(Cc3ccn(C)n3)CC2)ccc1-c1cn(CC2CCCCO2)nn1 (centres unmarked) [Compound I-582]
inhibition at 10 µM: > 75%

Cc1ccc(C#CC2CC2)cc1Cc1cn(CC2CCc3ccccc3O2)nn1 (centres unmarked) [Compound I-551]
inhibition at 10 µM: 25 to 50%

Cc1cc(C#CCN(C)C2CC2)ccc1-c1cn(CC2OCC(C)(C)CO2)nn1 [Compound I-698]
inhibition at 10 µM: > 75%
IC50: 300 to 1000 nM

CN(C)c1cc(C#N)ccc1-c1cn(CC2OCC(C)(C)CO2)nn1 [Compound I-733, 4-(1-((5,5-dimethyl-1,3-dioxan-2-yl)methyl)-1H-1,2,3-triazol-4-yl)-3-(dimethylamino)benzonitrile]
inhibition at 10 µM: 50 to 75%

CCc1cc(C#CCNC)ccc1-c1cn(CC2OCC(C)(C)CO2)nn1 [Compound I-859]
inhibition at 2 µM: > 75%

c1ccc(COc2ccc3c(c2)CCc2cn(CC4CCCCO4)nc2-3)cc1 (single isomer, unassigned) [Compound I-330]
inhibition at 10 µM: ≤ 25%
IC50: 300 to 1000 nM

C(#CC1CC1)c1ccc(-n2cc(CC3CCOCC3)nn2)cc1 [Compound I-294]
inhibition at 25 µM: ≤ 25%

CNCc1cc(C#CC2CC2)ccc1-c1cn(CC2CCCCO2)nn1 (centres unmarked) [Compound I-355]
inhibition at 10 µM: 50 to 75%

CNC1CN(c2ccc(-c3cn(CC4CCCCO4)nn3)c(C)c2)C1 (centres unmarked) [Compound I-184]
inhibition at 10 µM: ≤ 25%

Cc1cc(C#CC2CC2)ccc1-n1nc(CC2CCCCO2)oc1=O (centres unmarked) [Compound I-12]
inhibition at 10 µM: 25 to 50%

Cc1cc(C(=O)NCC2CC2)ccc1-c1cn(CC2CCCCO2)nn1 (centres unmarked) [Compound I-357]
inhibition at 10 µM: 50 to 75%

c1ccc(COc2ccc(-c3cn(CC4CCCCO4)nn3)cc2)cc1 (centres unmarked) [Compound I-53]
inhibition at 25 µM: ≤ 25%

Cc1ccc(C#CCN2CC(C)(C)C2)cc1Cc1cn(CC2CCCCO2)nn1 (centres unmarked) [Compound I-415]
inhibition at 10 µM: 25 to 50%

Cc1cc(CCCCN2CCCCC2)ccc1-c1cn(CC2CCCCO2)nn1 (centres unmarked) [Compound I-270]
inhibition at 10 µM: ≤ 25%

C(#CC1CC1)c1cccc(Cc2cn(CC3CCCCO3)nn2)c1 (centres unmarked) [Compound I-301]
inhibition at 10 µM: 50 to 75%

Cc1cc(C#CC2CC2)ccc1-c1cn(CC23CC4CC(CC(C4)O2)C3)nn1 [Compound I-523]
inhibition at 2 µM: ≤ 25%

Cc1cc(C#CC2CC2)ccc1-c1cn(CC2CCCCS2(=O)=O)nn1 (centres unmarked) [Compound I-248]
inhibition at 10 µM: ≤ 25%

CCc1cc(N2CC(C)(C)C2)ccc1-c1cn(CC2Oc3ccccc3O2)nn1 [Compound I-647]
inhibition at 2 µM: > 75%
IC50: 300 to 1000 nM

Cc1cc(C#CC2CC2)ccc1-c1nnn(CC2CCCCO2)n1 (centres unmarked) [Compound I-9]
inhibition at 10 µM: ≤ 25%

CC1(C)COC(Cn2cc(-c3ncc(C#CCN4CC(C)(C)C4)cc3OCC(F)(F)F)nn2)OC1 [Compound I-722]
inhibition at 2 µM: > 75%
IC50: ≤ 300 nM

CC(C)(C)OCCn1cc(-c2ccc(C#CC3CC3)cc2)nn1 [Compound I-97]
inhibition at 10 µM: ≤ 25%

CC(=O)NCC1(C)CN(c2ccc(-c3cn(CC4CCCCO4)nn3)c(C)c2)C1 (centres unmarked) [Compound I-447]
inhibition at 10 µM: 25 to 50%

Cc1cc(N2CC(Nc3cnn(C)c3)C2)ccc1-c1cn(CC2CCCCO2)nn1 (centres unmarked) [Compound I-541]
inhibition at 10 µM: 25 to 50%

Cc1cc(N2CCN(Cc3ccccn3)CC2=O)ccc1-c1cn(CC2OCC(C)(C)CO2)nn1 [Compound I-751]
inhibition at 10 µM: 25 to 50%

Cc1ccc(C#CC2CC2)cc1-c1nnc(CC2CCCCO2)o1 (centres unmarked) [Compound I-343]
inhibition at 10 µM: 50 to 75%

Cc1c(-c2ccc(C#CC3CC3)cc2)nnn1CC1CCCCS1(=O)=O (centres unmarked) [Compound I-574]
inhibition at 10 µM: ≤ 25%

Cc1cc(N2CCN([C@H](C)c3ccccn3)CC2)ccc1-c1cn(C[C@H]2CCCCO2)nn1 [Compound I-611]
inhibition at 10 µM: 25 to 50%

CC1(C)COC(Cn2cc(-c3ccc(N4CC(C)(CO)C4)cc3CC(F)(F)F)nn2)OC1 [Compound I-735]
inhibition at 2 µM: > 75%
IC50: ≤ 300 nM

Cc1cc(N2CC3(CN(Cc4ccccn4)C3)C2)ccc1-c1cn(CC2CCCCO2)nn1 (centres unmarked) [Compound I-429]
inhibition at 10 µM: 25 to 50%

CN(C)c1cc(N2CC(C)(C)C2)ccc1-c1cn(CC2CCCCO2)nn1 (centres unmarked) [Compound I-202]
inhibition at 10 µM: > 75%
IC50: 1000 to 3000 nM

Cc1cc(N2CCN(Cc3cccnc3)CC2)ccc1-c1cn(CC2CCCCO2)nn1 (centres unmarked) [Compound I-578]
inhibition at 10 µM: 50 to 75%
IC50: > 3000 nM

CC(C)(O)c1cc(C#CC2CC2)ccc1-c1cn(CC2CCCCO2)nn1 (centres unmarked) [Compound I-229]
inhibition at 10 µM: ≤ 25%

CNC1CCN(c2ccc(-c3cn(CC4CCCCO4)nn3)c(C)c2)CC1 (centres unmarked) [Compound I-128]
inhibition at 10 µM: ≤ 25%

COC(=O)c1cc(C#CC2CC2)ccc1-c1cn(CC2CCCCO2)nn1 (centres unmarked) [Compound I-214]
inhibition at 10 µM: ≤ 25%

Cc1cc(C#CCN2CCCC2C(=O)O)ccc1-c1cn(CC2CCCCO2)nn1 (centres unmarked) [Compound I-247]
inhibition at 10 µM: ≤ 25%

Cc1cc(N2CC(C)(C)C2)ccc1-c1cn(CC2CCCCO2)nn1 (centres unmarked) [Compound I-864]
inhibition at 10 µM: 25 to 50%
IC50: 300 to 1000 nM

Cc1cc(N2CC(C)(N(C)C)C2)ccc1-c1cn(CC2CCCCO2)nn1 (centres unmarked) [Compound I-470]
inhibition at 10 µM: ≤ 25%

Cc1ccc(C#CC2CC2)cc1Cc1cn(CC2OCC(C)(C)CO2)nn1 [Compound I-669, 4-(5-(cyclopropylethynyl)-2-methylbenzyl)-1-((5,5-dimethyl-1,3-dioxan-2-yl)methyl)-1H-1,2,3-triazole]
inhibition at 2 µM: > 75%
IC50: ≤ 300 nM

Cc1ccc(C#CC2CC2)cc1Nc1cnn(CC2OCC(C)(C)CO2)n1 [Compound I-759, N-(5-(cyclopropylethynyl)-2-methylphenyl)-2-((5,5-dimethyl-1,3-dioxan-2-yl)methyl)-2H-1,2,3-triazol-4-amine]
inhibition at 10 µM: ≤ 25%

Cc1c(-c2ccc(C#CC3CC3)cc2)ncn1CC1CCCCO1 (centres unmarked) [Compound I-334]
inhibition at 25 µM: > 75%

Cc1cc(C#CC2CC2)ccc1-c1cn(CC2COCCN2)nn1 (centres unmarked) [Compound I-515]
inhibition at 10 µM: ≤ 25%

CC(C)c1cc(N2CC(C)(C)C2)cnc1-c1cn(CC2CC(C)(C)O2)nn1 (centres unmarked) [Compound I-600]
inhibition at 10 µM: > 75%
IC50: 1000 to 3000 nM

C(#CC1CC1)c1ccc(-c2cn(C[C@H]3COCCO3)nn2)cc1 [Compound I-22]
inhibition at 25 µM: ≤ 25%

CC(C)Oc1cc(N2CC(C)(CO)C2)cnc1-c1cn(CC2CC(C)(C)CO2)nn1 (centres unmarked) [Compound I-501]
inhibition at 10 µM: > 75%
IC50: 1000 to 3000 nM

Cc1cc(N2CCC(N(C)C)CC2)ccc1-c1cn(CC2CCCCO2)nn1 (centres unmarked) [Compound I-129]
inhibition at 10 µM: ≤ 25%

Cc1cc(N2CC3(CCNC3)C2)ccc1-c1cn(CC2CCCCO2)nn1 (centres unmarked) [Compound I-167]
inhibition at 10 µM: ≤ 25%

Cc1cc(N2CCC(CO)CC2)ccc1-c1cn(CC2CCCCO2)nn1 (centres unmarked) [Compound I-445]
inhibition at 10 µM: 50 to 75%

Cc1cc(C#CC2CC2)ccc1-c1cn(CC2CCCCN2S(C)(=O)=O)nn1 (centres unmarked) [Compound I-191]
inhibition at 10 µM: ≤ 25%

Reference: patent US12617777B2, “GPR84 antagonists and uses thereof” (Liminal BioSciences Limited, priority 2021, dated 2026)
